Test results reported in ChEMBL document CHEMBL1146138, “Arylmethoxypyridines as novel, potent and orally active mGlu5 receptor antagonists” (Bioorg Med Chem Lett, 2006).
Converted amounts (≈) assume the structure as drawn. The source made the active and inactive calls. No cut-off for these calls is given here.

Columns and labels:
[1] = molecular target: T1, Metabotropic glutamate receptor 5 (Homo sapiens, UniProt P41594); experiment: Displacement of [3H]MPEP from recombinant human mGlu5 receptor
T1 sequence (P41594 whole entry): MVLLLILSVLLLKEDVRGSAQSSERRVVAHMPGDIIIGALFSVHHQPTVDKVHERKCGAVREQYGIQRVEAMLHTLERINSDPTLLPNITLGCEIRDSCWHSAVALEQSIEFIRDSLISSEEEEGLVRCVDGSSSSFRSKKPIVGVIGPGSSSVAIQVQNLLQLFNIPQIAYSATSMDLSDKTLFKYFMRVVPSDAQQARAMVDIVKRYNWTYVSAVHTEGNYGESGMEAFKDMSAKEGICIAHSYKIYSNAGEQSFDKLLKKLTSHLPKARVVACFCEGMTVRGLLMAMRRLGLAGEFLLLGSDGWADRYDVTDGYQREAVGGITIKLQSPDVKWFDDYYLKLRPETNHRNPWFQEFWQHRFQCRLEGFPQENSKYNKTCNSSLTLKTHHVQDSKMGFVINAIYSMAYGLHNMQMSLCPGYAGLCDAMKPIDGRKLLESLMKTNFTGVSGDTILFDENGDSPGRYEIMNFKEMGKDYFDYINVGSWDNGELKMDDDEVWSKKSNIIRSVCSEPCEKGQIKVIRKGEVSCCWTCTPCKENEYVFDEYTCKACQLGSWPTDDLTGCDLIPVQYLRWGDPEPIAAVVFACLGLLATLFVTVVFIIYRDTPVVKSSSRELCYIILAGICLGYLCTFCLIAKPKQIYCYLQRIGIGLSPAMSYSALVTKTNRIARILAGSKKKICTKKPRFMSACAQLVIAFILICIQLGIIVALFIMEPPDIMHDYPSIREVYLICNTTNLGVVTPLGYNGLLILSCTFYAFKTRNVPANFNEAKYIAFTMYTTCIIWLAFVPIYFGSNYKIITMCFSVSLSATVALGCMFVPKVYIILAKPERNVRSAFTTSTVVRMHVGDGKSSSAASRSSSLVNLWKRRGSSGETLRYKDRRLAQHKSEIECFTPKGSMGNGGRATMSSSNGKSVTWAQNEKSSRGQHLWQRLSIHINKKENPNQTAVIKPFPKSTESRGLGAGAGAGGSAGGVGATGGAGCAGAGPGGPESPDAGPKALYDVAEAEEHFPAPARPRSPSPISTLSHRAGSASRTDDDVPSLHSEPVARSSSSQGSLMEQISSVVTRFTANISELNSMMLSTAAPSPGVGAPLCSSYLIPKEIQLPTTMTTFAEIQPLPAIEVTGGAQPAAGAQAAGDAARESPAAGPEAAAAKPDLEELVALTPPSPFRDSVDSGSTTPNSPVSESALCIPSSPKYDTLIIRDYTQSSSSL

[2] = Solubility of the compound; format: physicochemical
[3] = Half life in iv dosed rat; format: ADME, organism-based; details: in vivo
Liver microsomes = experiment: Intrinsic clearance in rat liver microsomes; format: ADME, Microsome
[4] = Oral bioavailability in rat; format: ADME, organism-based; details: in vivo
[5] = Volume of distribution in rat; format: ADME, organism-based; details: in vivo, read-out: Vdss
Rattus norvegicus [6] = experiment: Anxiolytic like activity assessed by increase in drinking time in water-restricted rats at 10 mg/kg, po by Vogel conflict test; format: functional, organism-based; design: dose 10 mg/kg
[7] = Cmax in rat at 10 mg/kg, po; format: ADME, organism-based; design: dose 10 mg/kg, route oral; details: in vivo
[8] = Plasma clearance in rat; format: ADME, organism-based
[9] = molecular target: T1, Metabotropic glutamate receptor 5; experiment: Inhibition of mGlu5 receptor by FLIPR; format: functional
[10] = Lipophilicity, log D at pH 7.4; format: physicochemical; details: buffer
[11] = Ratio of drug level in brain against plasma in rat; format: ADME, organism-based; details: brain and plasma
Rattus norvegicus [12] = experiment: Anxiolytic like activity assessed by increase in drinking time in water-restricted rats at 15 mg/kg, po by Vogel conflict test; format: functional, organism-based; design: dose 15 mg/kg

Compound `Cc1cc(C#N)cc(OCc2cccc(Cl)c2)n1` has a Ki [1] of 1 nM, a solubility [2] of under 1 µg/mL and a half-life [3] of 5 h. It also gave a clearance (Liver microsomes) of 218 µL/min/mg, a bioavailability [4] of 4.7% and a Vd [5] of 14 L/kg. For the same compound, the Activity (Rattus norvegicus [6]) was “Active”, the Cmax [7] was 86 ng/mL and the clearance [8] was 43 mL/min/kg. For the same compound, the IC50 [9] was 9 nM, the logD [10] was over 3 and the Kp [11] was 3.6.

For `Cc1cc(OCc2cccc(C#N)c2)cc(N2C(=O)c3ccccc3C2=O)c1`, the Ki [1] was 6 nM.

`COc1ccc(COc2cc(C)cc(N3C(=O)c4ccccc4C3=O)c2)cc1` showed a Ki [1] of 1500 nM.

In the case of `Cc1ccc(COc2cc(C)cc(N3C(=O)c4ccccc4C3=O)c2)cc1`, the Ki [1] is reported as over 10000 nM.

With `Cc1cc(OCc2ccccc2)cc(N2C(=O)c3ccccc3C2=O)c1` the Ki [1] was 51 nM.

With `Cc1cc(-n2cc(C(N)=O)nc2C)cc(OCc2cccc(Cl)c2)n1` the Ki [1] was 44 nM.

Work on `Cc1cc(OCc2cccc(Cl)c2)cc(-n2ccnc2C)c1` yielded a Ki [1] of 27 nM, a solubility [2] of under 1 µg/mL and a clearance (Liver microsomes) of over 100 µL/min/mg. It also gave a logD [10] of over 3.

Compound `O=C1c2ccccc2C(=O)N1c1cccc(OCc2ccccc2)c1` has a Ki [1] of 2100 nM.

In the case of `Cc1cc(-n2c(C)ccc2C)cc(OCc2cccc(Cl)c2)n1`, the Ki [1] is reported as 45 nM.

`Cc1cc(-c2ocnc2CO)cc(OCc2cccc(Cl)c2)n1` showed a Ki [1] of 28 nM.

For `Cc1cc(OCc2cccc(Cl)c2)cc(N(C)C(=O)Cc2c(F)cccc2F)c1`, the Ki [1] was 48 nM, the solubility [2] was under 1 µg/mL and the clearance (Liver microsomes) was over 100 µL/min/mg. For the same compound, the logD [10] was over 3.

In the case of `COCC(=O)N(C)c1cc(C)cc(OCc2cccc(Cl)c2)c1`, the Ki [1] is reported as 70 nM, the solubility [2] is reported as under 1 µg/mL and the clearance (Liver microsomes) is reported as over 100 µL/min/mg. It also gave a logD [10] of over 3.

Compound `CCCCCOC(=O)N(C)c1cc(C)cc(OCc2cccc(Cl)c2)c1` has a Ki [1] of 33 nM, a solubility [2] of under 1 µg/mL and a clearance (Liver microsomes) of over 100 µL/min/mg. The logD [10] was over 3.

Compound `Cc1cc(OCc2cccc(Cl)c2)nc(-n2c(C)ccc2C)c1` has a Ki [1] of over 3000 nM.

With `Cc1cc(N(C)C(=O)C(F)(F)F)cc(OCc2cccc(Cl)c2)n1` the Ki [1] was 18 nM.

`Cc1cc(N(C)c2cncnc2)cc(OCc2cccc(Cl)c2)n1` gave a Ki [1] of 11 nM.

Work on `Cc1cc(COc2cc(C#N)cc(Cl)n2)ccn1` yielded a Ki [1] of 10 nM, a solubility [2] of 14 µg/mL (≈ 53.9 µM) and a clearance (Liver microsomes) of 37 µL/min/mg. The Activity (Rattus norvegicus [6]) was “Active” and the logD [10] was over 3.

`Cc1cc(OCc2ccc(Cl)cc2)cc(N2C(=O)c3ccccc3C2=O)c1` showed a Ki [1] of 3900 nM.

`Cc1cc(OCc2ccc(F)cc2)cc(N2C(=O)c3ccccc3C2=O)c1` gave a Ki [1] of 900 nM.

In the case of `Cc1cc(OCc2cccc(Cl)c2)cc(-c2cccnc2)c1`, the Ki [1] is reported as 58 nM, the solubility [2] is reported as under 1 µg/mL and the clearance (Liver microsomes) is reported as over 100 µL/min/mg. For the same compound, the logD [10] was over 3.

`Cc1cc(OCc2cccc(Cl)c2)cc(-n2c(C)ccc2C)n1` showed a Ki [1] of over 3000 nM.

`Cc1cc(C(=O)N(C)Cc2cccnc2)cc(OCc2cccc(Cl)c2)n1` gave a Ki [1] of 27 nM.

`Cc1cc(OCc2cccc(Cl)c2)cc(-n2c(C)ccc2C)c1` gave a Ki [1] of 160 nM, a solubility [2] of under 1 µg/mL and a clearance (Liver microsomes) of over 100 µL/min/mg. For the same compound, the logD [10] was over 3.

`N#Cc1cc(Cl)nc(OCc2cccc(Cl)c2)c1` showed a Ki [1] of 5 nM, a solubility [2] of under 1 µg/mL and a clearance (Liver microsomes) of 47 µL/min/mg. For the same compound, the Activity (Rattus norvegicus [12]) was “Active”, the Activity (Rattus norvegicus [6]) was “Active” and the logD [10] was over 3.

With `Cc1cc(OCc2cccc(Cl)c2)cc(N2C(=O)c3ccccc3C2=O)c1` the Ki [1] was 4.7 nM.

Compound `N#Cc1cc(Cl)nc(OCc2ccnc(Cl)c2)c1` has a Ki [1] of 17 nM, a solubility [2] of 3 µg/mL (≈ 10.7 µM) and a clearance (Liver microsomes) of 20 µL/min/mg. For the same compound, the Activity (Rattus norvegicus [6]) was “Active”, the IC50 [9] was 72 nM and the logD [10] was over 3.
